Results taken from patent US8685999B2, “Beta carboline sulphonylurea derivatives as EP4 receptor antagonists” (Merck Sharp & Dohme Corp., priority 2008, dated 2014).

Molecular target: T1, EP4 (Homo sapiens, UniProt P35408)
T1 construct: expressed in transfected cells; membranes prepared by differential centrifugation
Assay: Prostanoid receptor binding assay (radioligand displacement binding assay)
Details: column marked X when IC50 < 1; read-out: IC50 (nm) X < 1
Procedure: Prostanoid receptor cDNAs corresponding to full length coding sequences are subcloned into the appropriate sites of mammalian expression vectors and transfected into HEK 293(ebna) cells. HEK 293(ebna) cells expressing the individual cDNAs are grown under selection and individual colonies are isolated after 2-3 weeks of growth using the cloning ring method and subsequently expanded into clonal cell lines.
Transfected HEK 293(ebna) cells are maintained in culture, harvested and membranes are prepared by differential centrifugation, following lysis of the cells in the presence of protease inhibitors, for use in receptor binding assays. Prostanoid receptor binding assays (for DP1, DP2 (CRTH2), EP1, EP2, EP3-III, EP4, FP, IP, and TP) are performed in 10 mM MES/KOH (pH 6.0) (EPs, FP and TP) or 10 mM HEPES/KOH (pH 7.4) (DPs and IP), containing 1 mM EDTA, 2.5-30 mM divalent cation and the appropriate radio-ligand. Synthetic compounds are added in DMSO which is kept constant at 1% (v/v) in all incubations. The reaction is initiated by addition of membrane protein. Non-specific binding is determined in the presence of 10 μM of the corresponding non-radioactive prostanoid. Incubations are conducted for 60-120 min at room temperature or 30° C. and terminated by rapid filtration. Specific binding is calculated by subtracting non specific binding from total binding. The residual specific binding at each ligand concentration is calculated and expressed as a function of ligand concentration in order to construct sigmoidal concentration-response curves. The binding affinity of the compounds is determined by calculating the equilibrium inhibition constant (Ki) from the equation Ki=InPt/1+[radio-ligand]/Kd where Kd is the equilibrium dissociation constant for the radio-ligand:receptor interaction and InPt is the inflection point of the dose-response curves.
Abramovitz, M. et al., Biochem, Biophys. Acta, 2000, 1483, pp. 285.

T1 sequence (P35408 whole entry): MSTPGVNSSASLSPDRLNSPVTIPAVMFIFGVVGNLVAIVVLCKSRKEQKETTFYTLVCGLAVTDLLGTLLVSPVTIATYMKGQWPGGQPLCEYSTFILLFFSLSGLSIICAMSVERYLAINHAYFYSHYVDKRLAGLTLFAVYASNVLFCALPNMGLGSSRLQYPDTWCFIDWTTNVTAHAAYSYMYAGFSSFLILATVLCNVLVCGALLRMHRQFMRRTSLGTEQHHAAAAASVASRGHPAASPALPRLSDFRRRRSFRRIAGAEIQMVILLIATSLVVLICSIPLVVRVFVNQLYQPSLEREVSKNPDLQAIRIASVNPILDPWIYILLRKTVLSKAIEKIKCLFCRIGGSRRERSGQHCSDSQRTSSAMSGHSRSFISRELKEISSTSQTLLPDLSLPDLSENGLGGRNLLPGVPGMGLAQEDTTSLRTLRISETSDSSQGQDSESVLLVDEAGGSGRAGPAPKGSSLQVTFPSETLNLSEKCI

IC50, < 1 nM:
CN1CCc2c(n(-c3ccc(CCNC(=O)NS(=O)(=O)c4ccc(Cl)cc4)cc3)c3cc(C4CC4)ccc23)C1=O [Example 2-4, 4-chloro-N-[({2-[4-(7-cyclopropyl-2-methyl-1-oxo-1,2,3,4-tetrahydro-9H-beta-carbolin-9-yl)phenyl]ethyl}amino)carbonyl]benzenesulfonamide]
Cc1nnc(-c2ccc3c(c2)c2c(n3-c3ccc(CC4(NC(=O)NS(=O)(=O)c5ccc(Cl)cc5)CC4)cc3)C(=O)N(C)CC2)o1 [Example 3-1, sodium[(4-chlorophenyl)sulfonyl]{[(1-{4-[2-methyl-6-(5-methyl-1,3,4-oxadiazol-2-yl)-1-oxo-1,2,3,4-tetrahydro-9H-beta-carbolin-9-yl]benzyl}cyclopropyl)amino]carbonyl}azanide]
COC(=O)c1ccc2c(c1)c1c(n2-c2ccc(CC3(NC(=O)NS(=O)(=O)c4ccc(Cl)cc4)CC3)cc2)C(=O)N(C)CC1 [Example 3-2, methyl 9-[4-({1-[({[(4-chlorophenyl)sulfonyl]amino}carbonyl)amino]cyclopropyl}methyl)phenyl]-2-methyl-1-oxo-2,3,4,9-tetrahydro-1H-beta-carboline-6-carboxylate]
CN1CCc2c(n(-c3ccc(CC4(NC(=O)NS(=O)(=O)c5ccc(Cl)cc5)CC4)cc3)c3ccc(C(=O)O)cc23)C1=O [Example 3-3, 9-[4-({1-[({[(4-chlorophenyl)sulfonyl]amino}carbonyl)amino]cyclopropyl}methyl)phenyl]-2-methyl-1-oxo-2,3,4,9-tetrahydro-1H-beta-carboline-6-carboxylic acid]
CN1CCc2c(n(-c3ccc(CC4(NC(=O)NS(=O)(=O)c5ccc(Cl)cc5)CC4)cc3)c3ccc(-c4ccn[nH]4)cc23)C1=O [Example 3-4, 4-chloro-N-{[(1-{4-[2-methyl-1-oxo-6-(1H-pyrazol-5-yl)-1,2,3,4-tetrahydro-9H-beta-carbolin-9-yl]benzyl}cyclopropyl)amino]carbonyl}benzenesulfonamide]
CN1CCc2c(n(-c3ccc(CC4(NC(=O)NS(=O)(=O)c5ccc(Cl)cc5)CC4)cc3)c3ccc(-c4nnc(-c5ccccc5)o4)cc23)C1=O [Example 3-5, 4-chloro-N-{[(1-{4-[2-methyl-1-oxo-6-(5-phenyl-1,3,4-oxadiazol-2-yl)-1,2,3,4-tetrahydro-9H-beta-carbolin-9-yl]benzyl}cyclopropyl)amino]carbonyl}benzenesulfonamide]
